Columns and labels:
[1] = Brain penetration and plasma/brain pharmacokinetics in combination with Temodar or Lynparza
Description: A similar analysis was performed with LMP744 and LMP400 in combination with Temodar and Lynparza.

[2] = Brain penetration and plasma/brain pharmacokinetics in CD1 mice; conditions: for Brain Conc / Brain/Plasma Conc Ratio / Plasma Conc: 20 mg/kg IV
Description: Brain Penetration Studies. […] The concentrations were determined by LC-MS/MS with direct measurement of the plasma samples. The brain tissue was homogenized with water using a 3:1 ratio of water (mL) to brain (g) before determination of the concentrations (ng/mL) in the brain homogenates, and the homogenate values then were multiplied by a factor of 4 to obtain the brain concentrations (ng/g).

OVCAR-3 (Ovarian) = conditions: Ovarian OVCAR-3; reference 20; read-out: Cytotoxicity GI50; cited from earlier work
HOP-62 (Lung) = conditions: Lung HOP-62; reference 20; read-out: Cytotoxicity GI50; cited from earlier work
[3] = 10 mg/kg IV + Lynparza 100 mg/kg PO, 0.25 h
[4] = 10 mg/kg IV + Lynparza 100 mg/kg PO, 0.5 h
[5] = 10 mg/kg IV + Lynparza 100 mg/kg PO, 1 h
[6] = 10 mg/kg IV + Lynparza 100 mg/kg PO, 2 h
[7] = 10 mg/kg IV + Lynparza 100 mg/kg PO, 4 h
[8] = 10 mg/kg IV + Lynparza 100 mg/kg PO, 8 h
[9] = 10 mg/kg IV + Lynparza 100 mg/kg PO, 24 h
[10] = LMP744 20 mg/kg IV + Temador 125 mg/kg PO, 0.25 h
[11] = LMP744 20 mg/kg IV + Temador 125 mg/kg PO, 0.5 h
[12] = LMP744 20 mg/kg IV + Temador 125 mg/kg PO, 1 h
[13] = LMP744 20 mg/kg IV + Temador 125 mg/kg PO, 2 h
[14] = LMP744 20 mg/kg IV + Temador 125 mg/kg PO, 4 h
[15] = LMP744 20 mg/kg IV + Temador 125 mg/kg PO, 8 h
[16] = LMP744 20 mg/kg IV + Temador 125 mg/kg PO, 24 h
[17] = brain, 10 mg/kg IV + Lynparza 100 mg/kg PO
[18] = brain, LMP744 20 mg/kg IV + Temador 125 mg/kg
[19] = plasma, 10 mg/kg IV + Lynparza 100 mg/kg PO
[20] = plasma, LMP744 20 mg/kg IV + Temador 125 mg/kg
[21] = brain, IV 20 mg/kg, male CD1 mice
[22] = plasma, IV 20 mg/kg, male CD1 mice

## COc1cc2c3c(n(CCCNCCO)c(=O)c2cc1OC)-c1cc2c(cc1C3=O)OCO2 [LMP744]
[1]; [3]
  Brain Conc: 89 ± 19 nM
  Brain/Plasma Conc Ratio: 0.46
  Plasma Conc: 1356 ± 229 nM
[1]; [4]
  Brain Conc: 780 ± 24 nM
  Brain/Plasma Conc Ratio: 0.83
  Plasma Conc: 940 ± 155 nM
[1]; [5]
  Brain Conc: 825 ± 250 nM
  Brain/Plasma Conc Ratio: 2.05
  Plasma Conc: 402 ± 29 nM
[1]; [6]
  Brain Conc: 850 ± 58 nM
  Brain/Plasma Conc Ratio: 2.64
  Plasma Conc: 322 ± 88 nM
[1]; [7]
  Brain Conc: 548 ± 28 nM
  Brain/Plasma Conc Ratio: 2.91
  Plasma Conc: 188 ± 54 nM
[1]; [8]
  Brain Conc: 557 ± 66 nM
  Brain/Plasma Conc Ratio: 7.74
  Plasma Conc: 72 ± 26 nM
[1]; [9]
  Brain Conc: 457 ± 61 nM
  Brain/Plasma Conc Ratio: 20.30
  Plasma Conc: 13 ± 2 nM
[1]; [10]
  Brain Conc: 1093 ± 168 nM
  Brain/Plasma Conc Ratio: 0.49
  Plasma Conc: 2238 ± 465 nM
[1]; [11]
  Brain Conc: 1199 ± 243 nM
  Brain/Plasma Conc Ratio: 0.89
  Plasma Conc: 1854 ± 101 nM
[1]; [12]
  Brain Conc: 1390 ± 145 nM
  Brain/Plasma Conc Ratio: 1.35
  Plasma Conc: 1027 ± 202 nM
[1]; [13]
  Brain Conc: 1328 ± 188 nM
  Brain/Plasma Conc Ratio: 2.49
  Plasma Conc: 534 ± 143 nM
[1]; [14]
  Brain Conc: 1272 ± 188 nM
  Brain/Plasma Conc Ratio: 3.58
  Plasma Conc: 355 ± 37 nM
[1]; [15]
  Brain Conc: 1244 ± 78 nM
  Plasma Conc: 139 ± 17 nM
[1]; [16]
  Brain Conc: 955 ± 76 nM
  Brain/Plasma Conc Ratio: 46
  Plasma Conc: 21 ± 4 nM
[1]; [17]
  AUClast: 5860 ng·h/g
  Cmax: 373 ng/g
  Tmax: 2.00 h
[1]; [18]
  AUClast: 12185 ng·h/g
  Cmax: 611 ng/g
  Tmax: 1.00 h
[1]; [19]
  AUCInf: 1535 ng·h/mL
  AUClast: 1491 ng·h/mL
  AUClast/D: 149 h·ng/mL per mg/kg
  AUC—% Extrap—obs: 2.83%
  C0: 2072 ng/mL
  Cl_obs: 109 mL/min/kg
  MRTInf—obs: 4.33 h
  T1/2: 5.43 h
  Vss—obs: 28.2 L/kg
[1]; [20]
  AUCInf: 2881 ng·h/mL
  AUClast: 2813 ng·h/mL
  AUClast/D: 141 h·ng/mL per mg/kg
  AUC—% Extrap—obs: 2.37%
  C0: 4973 ng/mL
  Cl_obs: 116 mL/min/kg
  MRTInf—obs: 4.09 h
  T1/2: 5.20 h
  Vss—obs: 28.4 L/kg
[2]; 0.25 h
  Brain Conc: 941 ± 158 nM
  Brain/Plasma Conc Ratio: 0.65
  Plasma Conc: 1434 ± 123 nM
[2]; 0.5 h
  Brain Conc: 582 ± 380 nM
  Brain/Plasma Conc Ratio: 0.34
  Plasma Conc: 1712 ± 945 nM
[2]; 1 h
  Brain Conc: 802 ± 122 nM
  Brain/Plasma Conc Ratio: 0.90
  Plasma Conc: 894 ± 194 nM
[2]; 2 h
  Brain Conc: 743 ± 136 nM
  Brain/Plasma Conc Ratio: 1.39
  Plasma Conc: 535 ± 103 nM
[2]; 4 h
  Brain Conc: 857 ± 162 nM
  Brain/Plasma Conc Ratio: 5.44
  Plasma Conc: 154 ± 14 nM
[2]; 8 h
  Brain Conc: 759 ± 188 nM
  Plasma Conc: 86 ± 31 nM
[2]; 24 h
  Brain Conc: 524 ± 166 nM
  Brain/Plasma Conc Ratio: 27.1
  Plasma Conc: 23 ± 5 nM
[2]; [21]
  AUClast: 7606 ng·h/g
  AUC—% Extrap—obs: 72%
  Cmax: 413 ng/g
  Tmax: 0.25 h
[2]; [22]
  AUCInf: 2132 ng·h/mL
  AUClast: 2022 ng·h/mL
  AUC—% Extrap—obs: 5.16%
  C0: 1943 ng/mL
  Cl_obs: 156 mL/min/kg
  MRTInf—obs: 5.14 h
  T1/2: 7.48 h
  Vss—obs: 48.2 L/kg
OVCAR-3 (Ovarian)
  GI50: 350 nM
HOP-62 (Lung)
  GI50: 20 nM

— patent publication US20240287089A1, “Preparation and Uses of 7-Azaindenoisoquinolines” (Purdue Research Foundation, priority 0001, published 2024)
